The test system of one series is Male Wistar rats. Kind of series: In vivo hemostatic efficiency, cut rat tail model. Conditions: all percent concentrations of h9e peptide solution. An excerpt: Similar to the method used by Mortazavi et al., in this study 30 rats were divided randomly into 5 groups of 6 animals each. […] Male Wistar rats were kept on AIN-93 diet with free access to water, under 12-h light-dark cycles, for one week. Before excising the tail, the rats were first anesthetized and maintained with 3% isoflurane until the eyelid closure reflex was lost and there was no reactive reflex in response to a toe pinch. In order to maintain an appropriate body temperature during anesthesia, a circulating water blanket was used at a temperature of 41-43° C. Following anesthesia, animals' tails were cut off at a thickness of 5 mm using a pair of mortuary scissors. The cut tail was immediately inserted into a small vial containing the appropriate treatment. The 1st group received topical saline solution (negative control) and the 2nd to 4th groups received topical h9e peptide solution at 1, 3, or 5 wt %, respectively. The 5th group received a topical application of a commercially available hemostatic agent as a positive control (Moore Medical CELOX* Hemostatic Granules). After treatment with above mentioned agents, the volume of blood lost was measured using a scaled test-tube. The bleeding time was measured using a stop watch. At the conclusion of the study, the rats were sacrificed using a CO2 chamber.

The next series concerns Rat ESCs and iPSCs. The series can be described thus: Stem cell 3D culture in h9e hydrogel. The class given is cell-based. From the text:
Rat PSCs: Animal use was approved by the KSU Institutional Animal Care and Use Committee (protocol #3168). Rat ESCs were derived in-house from Dark Agouti rats and characterized following the methods described in previous studies. Low passage ESCs were thawed, expanded one passage in 2D on MEF feeders, and then used in these experiments. Rat iPSCs were generated from Fischer 344 rat embryonic fibroblasts using a mouse OKSM STEMCCA lentiviral reprogramming vector according to the manufacturer's protocol (Millipore, SCR513).
3D cell culture: We adapted the techniques used previously to encapsulate breast cancer cells in 3D described in previous studies. This was done by using the regular h9e peptide hydrogel (1% wt=6 mM) in an aqueous solution. The peptide hydrogel-medium was prepared by directly mixing the aqueous h9e peptide solution with concentrated 2i plus LIF medium at 1:1 ratios for a final peptide concentration of 3 mM (600 Pa). […] Specifically, medium was made at 1.2× concentration for the 1:5 dilution, […] for the […] and 2× for the 1:1 dilution in the three h9e hydrogel concentrations. After mixing, the cells were added and the mixture was immediately added to the dish slowly to avoid air bubbles. The plates were then incubated for 30 min at 37° C. to permit gelation. To feed, 1× concentration 2i plus LIF medium was added slowly to the top of the hydrogel. To pass, the media was pipetted up and down by adding 1-2 ml of PBS more forcefully to shear the gel, and the liquefied contents were then added to a tube and diluted to a concentration that was below that which permitted gelation. The colonies were pelleted by low speed centrifugation (100×g for 5 min at room temperature), washed with calcium and magnesium free PBS, and then trypsinized to single cells by addition of trypsin EDTA for 5 min. Enzymatic reaction was terminated by dilution with PBS and 2 washing steps. The PSCs were suspended in a small volume of medium, added to the 1× hydrogel-medium solution, and re-plated at the desired concentration. Alkaline phosphatase staining, Immunofluorescence staining: Karyotyping, Embryoid body formation, Gene expression analysis were performed to determine the differentiation properties.

Series [1] is described as follows: Hydrogelation and dynamic rheology of h9e in MEM. It is filed as physicochemical. Conditions: for stable storage modulus: 37° C. The protocol: Lyophilized peptide was added to 100 mM sodium bicarbonate and completely dissolved by magnetic stirring for 3 hours with a final peptide concentration of 10 mM. For hydrogelation, peptide solution was added into MEM with 10% FBS and the mixture was hand-shaken for about 10 seconds. The peptide hydrogel formed within 15 minutes at room temperature with final peptide concentrations of 1, 2, and 3 mM. The storage and loss moduli (G′ and G″, respectively) of h9e hydrogels were determined on a C-VOR 150 rheometer system (Malvern instruments, Malvern, Worcestershire WR141XZ, United Kingdom) with a 20-mm diameter parallel plate geometry and 500 μm gap size. To mimic cell physiological conditions, all rheological tests were performed at 37° C. unless otherwise specified. The peptide and MEM mixture was placed on the measuring system immediately after mixing for a gel-forming rate test. Single frequency (1 Hz) and steady shear strain (1%) were selected for a 1 hour test. To determine the hydrogel reassembly capability, the peptide and MEM mixture was incubated at room temperature overnight for hydrogelation, then transferred to a lower measuring plate for a 10 minute, single-frequency test (1 Hz, 1% strain) for stabilization. The hydrogel was broken using 1 Hz frequency and 500% shear strain for 1 minute. Resetting the instrument parameters took 1 minute, and the hydrogel moduli during the reassembly period were measured under 1 Hz frequency and 1% shear strain for 1 hour. The amplitude sweep test (strain from 1 to 500%, 1 Hz frequency) was conducted multiple times to determine hydrogel reassembly capability after each time it was destroyed. Four testing cycles were applied in this measurement and the hydrogel recovery time between every two cycles was 1, 5, and 10 minutes. Furthermore, to test the response to different environmental temperatures, the peptide hydrogel was measured under a temperature profile test with steady oscillatory frequency (1 Hz) and strain (1%). The temperature was adjusted from 4° C. to 50° C. for two testing cycles. For each cycle, the instrument's heating or cooling processes took 5 minutes, then another 5 minutes to arrive at the setting temperature (4° C. or 50° C.). To determine the G′ and G″ of hydrogel during cell isolation, 3 mM peptide hydrogel was diluted 15 times with MEM. After thorough mixing, the diluted solution was tested under 1 Hz frequency and 1% shear strain at 4° C. for 1 hour.

Series [2] in a line: Rheology of h9e/HSA hydrogel formation. The class given is physicochemical. The procedure: For albumin triggered hydrogel formation, 10 mM (1.74 wt %) peptide was first dissolved in 100 mM NaHCO3 solution. BSA and HSA were dissolved in water with 5 wt % concentration. The peptide solution and albumin solution were then mixed at different ratios for final mixtures of 1, 2, 3 mM h9e peptide with albumin from 0.1 to 5 wt %.
The storage (G′) and loss (G″) moduli of h9e hydrogels with different peptide/albumin ratios were measured on a rheometer system C-VOR 150 (Malvern instruments, Malvern, Worcestershire WR141XZ, United Kingdom) with a 20 mm diameter parallel plate test system. All rheological tests were carried out at 37° C. To determine the hydrogel forming rate, the peptide and albumin mixture was placed on the measuring system immediately after preparation and tested by a single frequency (1 Hz) method with steady shear strain (1%) for 1 hour

One substance from US11135163B2, “Peptide hydrogel properties and its applications” (Kansas State University Research Foundation, priority 2014, dated 2021) can be followed below.

On to “H-FLIVIGSIIGPGGDGPGGD-NH2 [h9e, FLIVIGSIIGPGGDGPGGD]”, for which the “control of hemorrhage versus sterile saline negative control” value with Male Wistar rats is recorded as “effective in controlling hemorrhage”. The “serial passages maintained in the undifferentiated state (Oct4, Nanog, Sox2, SSEA-1 staining)” value in the series with Rat ESCs and iPSCs (3 mM h9e hydrogel, 3D culture) is listed as “at least 25 serial passages”. Also, the “proliferation of encapsulated rat pluripotent stem cells” value in the series on Rat ESCs and iPSCs (3 mM hydrogel) is “proliferated well”. In the series with Rat ESCs and iPSCs (3D culture in hydrogel), the “alkaline phosphatase staining after more than 25 passages” value is on record as “not affected”. In the series with Rat ESCs and iPSCs (rat ESC or rat iPSC cultures), the “spontaneous differentiation on the colony edges” value is on record as “never observed”. The stable storage modulus entry in series [1] (1 mM h9e in MEM) was “around 100 Pa”; in series [1] (2 mM h9e in MEM), about 400 Pa; in series [1] (3 mM h9e in MEM) it was about 700 Pa. The gel strength recovered entry is recorded as “about 73%” in series [1] (1 mM hydrogel, waiting time 1 min); 83% in series [1] (1 mM, after three shear-thinning cycles and 10 min waiting); about 76% in series [1] (2 mM hydrogel, waiting time 1 min); 84% in series [1] (2 mM, after three shear-thinning cycles and 10 min waiting); about 88% in series [1] (3 mM hydrogel, waiting time 1 min); 100% in series [1] (3 mM, after three shear-thinning cycles and 10 min waiting). Moreover, in series [1] (1, 2 and 3 mM h9e in MEM), the “time to reach self-supporting strength (close or above 100 Pa)” value is at most 15 min. In addition, the “G′ after shear-thinning” value in series [1] (1-3 mM hydrogels, 500% strain for 1 minute) is reported as “lower than 0.2 Pa”. Moreover, the “time to self-supporting hydrogel matrix” value in series [1] (h9e solution added into MEM with 10% serum) is listed as at most 1 min. For the same substance, the “G′ at 50° C. relative to 4° C.” value in series [1] (temperature profile test, 1-3 mM hydrogels) is reported as 2-3 times. The hydrogel formation entry is given as “hydrogel was formed” in series [2] (3 mM h9e peptide mixed with 5 wt % HSA) and “Hydrogel did not form” in series [2] (peptide concentration 1 mM or HSA concentration 0.5 wt %).
